Test system: rodent lifetime carcinogenesis bioassay, tumor incidence TD50
Experiment: chronic cancer bioassays in animals – CPDB, compiled studies (AID 1745844)
Details: inhaled

C=CCl
TD50 (hamster, strain Syrian Golden, females, site: all sites, lesion: hemangiosarcoma, dosed 26 weeks, study length 104 weeks): 78.6 mg/kg/day
TD50 (hamster, strain Syrian Golden, females, site: all sites, lesion: hemangiosarcoma, dosed 52 weeks, study length 104 weeks): 314 mg/kg/day
TD50 (hamster, strain Syrian Golden, females, site: all sites, lesion: hemangiosarcoma, dosed 78 weeks, study length 104 weeks): 1920 mg/kg/day
TD50 (hamster, strain Syrian Golden, females, site: mammary gland, lesion: carcinoma, dosed 26 weeks, study length 104 weeks): 32.3 mg/kg/day
TD50 (hamster, strain Syrian Golden, females, site: mammary gland, lesion: carcinoma, dosed 52 weeks, study length 104 weeks): 27.7 mg/kg/day
TD50 (hamster, strain Syrian Golden, females, site: mammary gland, lesion: carcinoma, dosed 78 weeks, study length 104 weeks): 61 mg/kg/day
TD50 (hamster, strain Syrian Golden, females, site: skin, lesion: carcinoma, dosed 52 weeks, study length 104 weeks): 121 mg/kg/day
TD50 (hamster, strain Syrian Golden, females, site: stomach, lesion: adenoma, dosed 26 weeks, study length 104 weeks): 47.2 mg/kg/day
TD50 (hamster, strain Syrian Golden, females, site: stomach, lesion: adenoma, dosed 52 weeks, study length 104 weeks): 1010 mg/kg/day
TD50 (hamster, strain Syrian Golden, females, site: stomach, lesion: adenoma, dosed 78 weeks, study length 104 weeks): 205 mg/kg/day
TD50 (hamster, strain Syrian Golden, males, site: acoustic duct, lesion: epithelioma, dosed 30 weeks, study length 101 weeks): 855 mg/kg/day
TD50 (hamster, strain Syrian Golden, males, site: all sites, lesion: leukemia, dosed 30 weeks, study length 101 weeks): 25800 mg/kg/day
TD50 (hamster, strain Syrian Golden, males, site: extrahepatic tissue, lesion: angioma, dosed 30 weeks, study length 101 weeks): 9800 mg/kg/day
TD50 (hamster, strain Syrian Golden, males, site: forestomach, lesion: epithelioma, dosed 30 weeks, study length 101 weeks): 55 mg/kg/day
TD50 (hamster, strain Syrian Golden, males, site: liver, lesion: angioma, dosed 30 weeks, study length 101 weeks): 2380 mg/kg/day
TD50 (hamster, strain Syrian Golden, males, site: liver, lesion: angiosarcoma, dosed 30 weeks, study length 101 weeks): 91800 mg/kg/day
TD50 (hamster, strain Syrian Golden, males, site: liver, lesion: hepatoma, dosed 30 weeks, study length 101 weeks): 1730 mg/kg/day
TD50 (hamster, strain Syrian Golden, males, site: skin, lesion: epithelioma, dosed 30 weeks, study length 101 weeks): 9350 mg/kg/day
TD50 (hamster, strain Syrian Golden, males, site: skin, lesion: melanoma, dosed 30 weeks, study length 101 weeks): 7630 mg/kg/day
TD50 (mouse, strain Charles River CD1, females, site: liver, lesion: hemangiosarcoma, dosed 26 weeks, study length 58 weeks): 91.9 mg/kg/day
TD50 (mouse, strain Charles River CD1, females, site: lung, lesion: alveolar/bronchiolar tumor, dosed 26 weeks, study length 58 weeks): 142 mg/kg/day
TD50 (mouse, strain Charles River CD1, females, site: mammary gland, lesion: malignant tumor, dosed 26 weeks, study length 58 weeks): 249 mg/kg/day
TD50 (mouse, strain Charles River CD1, males, site: liver, lesion: hemangiosarcoma, dosed 26 weeks, study length 78 weeks): 32 mg/kg/day
TD50 (mouse, strain Charles River CD1, males, site: lung, lesion: alveolar/bronchiolar tumor, dosed 26 weeks, study length 78 weeks): 88.7 mg/kg/day
TD50 (mouse, strain Swiss, females, site: all sites, lesion: hemangiosarcoma, dosed 26 weeks, study length 104 weeks): 12.5 mg/kg/day
TD50 (mouse, strain Swiss, females, site: all sites, lesion: hemangiosarcoma, dosed 52 weeks, study length 104 weeks): 13.8 mg/kg/day
TD50 (mouse, strain Swiss, females, site: all sites, lesion: hemangiosarcoma, dosed 78 weeks, study length 104 weeks): 36.1 mg/kg/day
TD50 (mouse, strain Swiss, females, site: any site (literature study), lesion: several types, types named in the paper, dosed 30 weeks, study length 77 weeks): 600 mg/kg/day
TD50 (mouse, strain Swiss, females, site: extrahepatic tissue, lesion: angioma, dosed 30 weeks, study length 77 weeks): 70900 mg/kg/day
TD50 (mouse, strain Swiss, females, site: extrahepatic tissue, lesion: angiosarcoma, dosed 30 weeks, study length 77 weeks): 736 mg/kg/day
TD50 (mouse, strain Swiss, females, site: forestomach, lesion: epithelioma, dosed 30 weeks, study length 77 weeks): 9820 mg/kg/day
TD50 (mouse, strain Swiss, females, site: liver, lesion: angioma, dosed 30 weeks, study length 77 weeks): 196 mg/kg/day
TD50 (mouse, strain Swiss, females, site: liver, lesion: angiosarcoma, dosed 30 weeks, study length 77 weeks): 98.8 mg/kg/day
TD50 (mouse, strain Swiss, females, site: liver, lesion: hepatoma, dosed 30 weeks, study length 77 weeks): 12200 mg/kg/day
TD50 (mouse, strain Swiss, females, site: lung, lesion: adenoma, dosed 30 weeks, study length 77 weeks): 402 mg/kg/day
TD50 (mouse, strain Swiss, females, site: lung, lesion: carcinoma, dosed 26 weeks, study length 104 weeks): 36.6 mg/kg/day
TD50 (mouse, strain Swiss, females, site: lung, lesion: carcinoma, dosed 52 weeks, study length 104 weeks): 55.5 mg/kg/day
TD50 (mouse, strain Swiss, females, site: lung, lesion: carcinoma, dosed 78 weeks, study length 104 weeks): 143 mg/kg/day
TD50 (mouse, strain Swiss, females, site: mammary gland, lesion: carcinoma, dosed 26 weeks, study length 104 weeks): 10.6 mg/kg/day
TD50 (mouse, strain Swiss, females, site: mammary gland, lesion: carcinoma, dosed 30 weeks, study length 77 weeks): 3750 mg/kg/day
TD50 (mouse, strain Swiss, females, site: mammary gland, lesion: carcinoma, dosed 52 weeks, study length 104 weeks): 22.9 mg/kg/day
TD50 (mouse, strain Swiss, females, site: mammary gland, lesion: carcinoma, dosed 78 weeks, study length 104 weeks): 32.2 mg/kg/day
TD50 (mouse, strain Swiss, females, site: skin, lesion: epithelioma, dosed 30 weeks, study length 77 weeks): 25100 mg/kg/day
TD50 (mouse, strain Swiss, males, site: any site (literature study), lesion: several types, types named in the paper, dosed 30 weeks, study length 77 weeks): 26.1 mg/kg/day
TD50 (mouse, strain Swiss, males, site: extrahepatic tissue, lesion: angioma, dosed 30 weeks, study length 77 weeks): 12300 mg/kg/day
TD50 (mouse, strain Swiss, males, site: extrahepatic tissue, lesion: angiosarcoma, dosed 30 weeks, study length 77 weeks): 8030 mg/kg/day
TD50 (mouse, strain Swiss, males, site: forestomach, lesion: epithelioma, dosed 30 weeks, study length 77 weeks): 5190 mg/kg/day
TD50 (mouse, strain Swiss, males, site: liver, lesion: angioma, dosed 30 weeks, study length 77 weeks): 1080 mg/kg/day
TD50 (mouse, strain Swiss, males, site: liver, lesion: angiosarcoma, dosed 30 weeks, study length 77 weeks): 70.8 mg/kg/day
TD50 (mouse, strain Swiss, males, site: liver, lesion: hepatoma, dosed 30 weeks, study length 77 weeks): 25200 mg/kg/day
TD50 (mouse, strain Swiss, males, site: lung, lesion: adenoma, dosed 30 weeks, study length 77 weeks): 14 mg/kg/day
TD50 (mouse, strain Swiss, males, site: skin, lesion: epithelioma, dosed 30 weeks, study length 77 weeks): 2690 mg/kg/day

From PubChem BioAssay AID1745844 (Carcinogenic Potency Database (CPDB), 2022)
